The record followed here is patent US20160330959A1, “FUNGICIDAL COMPOSITIONS OF PYRAZOLECARBOXYLIC ACID ALKOXYAMIDES” (BAYER CROPSCIENCE AKTIENGESELLSCHAFT, priority 2014, published 2016).

One series concerns Septoria tritici. As to the kind of experiment: in vivo preventive Septoria tritici test (wheat). To be noted: preventive spray, evaluated 21 days after inoculation. An excerpt:
(§1) A synergistic effect of fungicides is always present when the fungicidal activity of the active compound combinations exceeds the total of the activities of the active compounds when applied individually. The expected activity for a given combination of two active compounds can be calculated as follows (cf. Colby, S. R., “Calculating Synergistic and Antagonistic Responses of Herbicide Combinations”, Weeds 1967, 15, 20-22): • If • X is the efficacy when active compound A is applied at an application rate of m ppm (or g/ha), • Y is the efficacy when active compound B is applied at an application rate of n ppm (or g/ha), • E is the efficacy when the active compounds A and B are applied at application rates of m and n ppm (or g/ha), respectively, and • then
(§2) The degree of efficacy, expressed in % is denoted. 0% means an efficacy which corresponds to that of the control while an efficacy of 100% means that no disease is observed.
To produce a suitable preparation of active compound, 1 part by weight of active compound or active compound combination is mixed with the stated amounts of solvent and emulsifier, and the concentrate is diluted with water to the desired concentration.
To test for preventive activity, young plants are sprayed with the preparation of active compound or active compound combination at the stated rate of application.
After the spray coating has been dried, the plants are sprayed with a spore suspension of Septoria tritici. The plants remain for 48 hours in an incubation cabinet at approximately 20° C. and a relative atmospheric humidity of approximately 100% and afterwards for 60 hours at approximately 15° C. in a translucent incubation cabinet at a relative atmospheric humidity of approximately 100%.
The plants are placed in the greenhouse at a temperature of approximately 15° C. and a relative atmospheric humidity of approximately 80%.
The test is evaluated 21 days after the inoculation. 0% means an efficacy which corresponds to that of the untreated control, while an efficacy of 100% means that no disease is observed.

The test system of the next series is Alternaria solani. As to the kind of experiment: in vivo preventive test on Alternaria test (tomatoes). To be noted: preventive spray, evaluated 3 days after inoculation.
Source text: as §1, §2
To produce a suitable preparation of active compound, 1 part by weight of active compound is mixed with the stated amounts of solvent and emulsifier, and the concentrate is diluted with water to the desired concentration.
To test for preventive activity, young plants are sprayed with the preparation of active compound at the stated rate of application. After the spray coating has dried on, the plants are inoculated with an aqueous spore suspension of Alternaria solani. The plants are then placed in an incubation cabinet at approximately 20° C. and a relative atmospheric humidity of 100%.
The test is evaluated 3 days after the inoculation. 0% means an efficacy which corresponds to that of the untreated control while an efficacy of 100% means that no disease is observed.

Series [1] is described as follows: log P by HPLC on reversed phase columns (EEC directive 79/831 Annex V.A8). It is filed as physicochemical. To be noted: pH 2.7, pH 2,7, 0.1% formic acid in water / acetonitrile gradient. The method, then:
Measurement of log P values was performed according EEC directive 79/831 Annex V.A8 by HPLC (High Performance Liquid Chromatography) on reversed phase columns with the following methods: ^[a] Measurement of LC-MS was done at pH 2,7 with 0.1% formic acid in water and with acetonitrile (contains 0.1% formic acid) as eluent with a linear gradient from 10% acetonitrile to 95% acetonitrile. Calibration was done with not branched alkan2-ones (with 3 to 16 carbon atoms) with known log P-values (measurement of log P values using retention times with linear interpolation between successive alkanones). lambda-maX-values were determined using UV-spectra from 200 nm to 400 nm and the peak values of the chromatographic signals.

Take `CC1(C)N=C(c2cnc3ccccc3c2)c2ccccc2C1(F)F` [Compound B1-4]: the “Efficacy in % found” value in the series on Septoria tritici (60 ppm a.i.) is 13%; in the series with Alternaria solani (0.125 ppm a.i.), 0%; in the series with Alternaria solani (0.25 ppm a.i.), 0%; in the series on Alternaria solani (0.5 ppm a.i.), 15%.

In the case of `Cc1nc2c(F)c(F)ccc2cc1Oc1cccc(F)c1C(C)(C)O` [Compound B1-3, 2-{2-[(7,8-difluoro-2-methylquinolin-3-yl)oxy]-6-fluorophenyl}propan-2-ol], the “Efficacy in % found” value with Septoria tritici (50 ppm a.i.) stood at 25%.

Turning to `CON(C(=O)c1cn(C)nc1C(F)F)C(C)Cc1c(Cl)cc(Cl)cc1Cl` (stereo not drawn) [Compound I-1, 3-(difluoromethyl)-N-methoxy-1-methyl-N-[1-(2,4,6-trichlorophenyl)propan-2-yl]-1H-pyrazole-4-carboxamide], the “Efficacy in % found” value with Septoria tritici (5 ppm a.i.) is 50%; with Septoria tritici (10 ppm a.i.) it was 63%; with Alternaria solani (0.125 ppm a.i.), 73%; with Alternaria solani (0.25 ppm a.i.) it was 85%.

Regarding `CC1(C)CN=C(c2cnc3ccccc3c2)c2cccc(F)c2O1` [Compound B1-1, 9-fluoro-2,2-dimethyl-5-(quinolin-3-yl)-2,3-dihydro-1,4-benzoxazepine], in the series on Septoria tritici (50 ppm a.i.), the “Efficacy in % found” value turned out to be 25%.

`Cc1nc2c(F)cccc2cc1Oc1cccc(F)c1C(C)(C)O` [Compound B1-2, 2-{2-fluoro-6-[(8-fluoro-2-methylquinolin-3-yl)oxy]phenyl}propan-2-ol]: in the series on Septoria tritici (50 ppm a.i.), the “Efficacy in % found” value was determined as 0%.

Regarding `CON(C(=O)c1c(C(F)F)nn(C)c1F)C(C)Cc1c(Cl)cc(Cl)cc1Cl` (stereo not drawn) [Compound I-2, 3-(difluoromethyl)-5-fluoro-N-methoxy-1-methyl-N-[1-(2,4,6-trichlorophenyl)propan-2-yl]-1H-pyrazole-4-carboxamide], the chromatographic logP in series [1] was 4.29.
